Measured values as given in PubChem BioAssay (NCI).
Where “and” joins values, the source holds several entries; their conditions need not be identical. Equal values may be shown once.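 48-hour exposure; five concentrations; linearly interpolated endpoints. Here, GI50 denotes the concentration required for 50% inhibition of growth. Definition used: TGI = concentration required for complete inhibition of growth.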

Experiments:
Assay in all cases: NCI tumour cell line growth inhibition, 48 h
[1] = system: HL-60(TB) leukemia
[2] = system: DMS 114 small cell lung
[3] = system: SK-OV-3 ovarian
[4] = system: OVCAR-4 ovarian
[5] = system: UO-31 renal
[6] = system: HCC-2998 colon
[7] = system: DU-145 prostate
[8] = system: OVCAR-3 ovarian
[9] = system: UACC-62 melanoma
[10] = system: SN12C renal
[11] = system: NCI-H23 lung
[12] = system: SNB-75 CNS
[13] = system: K-562 leukemia
[14] = system: HCT-15 colon
[15] = system: MDA-MB-435
[16] = system: RPMI-8226 leukemia
[17] = system: HT29 colon
[18] = system: UACC-257 melanoma
[19] = system: BT-549 breast
[20] = system: IGROV1 ovarian
[21] = system: HCT-116 colon
[22] = system: HOP-92 NSCLC
[23] = system: NCI-H522 lung
[24] = system: T-47D breast
[25] = system: TK-10 renal
[26] = system: 786-0 renal
[27] = system: SW-620 colon
[28] = system: U251 CNS
[29] = system: SF-539 CNS
[30] = system: CCRF-CEM leukemia
[31] = system: A549 NSCLC
[32] = system: NCI-H226 lung
[33] = system: SF-268 CNS
[34] = system: EKVX NSCLC
[35] = system: HOP-62 NSCLC
[36] = system: SK-MEL-2 melanoma
[37] = system: NCI/ADR-RES ovarian
[38] = system: HS 578T breast
[39] = system: MCF7 breast
[40] = system: OVCAR-5 ovarian
[41] = system: COLO 205 colon
[42] = system: SR leukemia
[43] = system: A498 renal
[44] = system: SK-MEL-28 melanoma
[45] = system: SK-MEL-5 melanoma
[46] = system: CAKI-1 renal
[47] = system: M14 melanoma
[48] = system: SF-295 CNS
[49] = system: RXF 393 renal
[50] = system: KM12 colon
[51] = system: LOX IMVI melanoma
[52] = system: PC-3 prostate
[53] = system: ACHN renal
[54] = system: MALME-3M melanoma
[55] = system: SNB-19 CNS
[56] = system: NCI-H460 lung
[57] = system: MDA-MB-231 breast
[58] = system: MOLT-4 leukemia
[59] = system: OVCAR-8 ovarian
[60] = system: MDA-N

For CC(C)SC1CC2C(CC1(C)O)C2(C)C (configuration not stated), the GI50 [1] was 53.4 µM and 9.68 µM, the TGI [1] was greater than 100 µM and the GI50 [2] was 89.7 µM and 18.7 µM. The TGI [2] was greater than 100 µM.
CCOC(=O)c1ccc(NC(=O)Oc2ccc3c(C)cc(=O)oc3c2)cc1 was tested, and the TGI [3] was 94.4 µM, the TGI [4] was greater than 100 µM and the TGI [5] was greater than 100 µM. For the same compound, the TGI [6] was 51.1 µM, the TGI [7] was greater than 100 µM and the TGI [8] was greater than 100 µM. For the same compound, the TGI [9] was greater than 100 µM, the TGI [10] was greater than 100 µM and the TGI [11] was greater than 100 µM. For the same compound, the TGI [12] was 98.1 µM, the TGI [13] was 66.7 µM and the TGI [14] was greater than 100 µM. It also gave a TGI [15] greater than 100 µM, a TGI [16] of 72.9 µM and a TGI [17] greater than 100 µM. The TGI [18] was greater than 100 µM, the TGI [1] was 62.2 µM and the TGI [19] was 89.5 µM. The TGI [20] was greater than 100 µM, the TGI [21] was 82.9 µM and the TGI [22] was 54.1 µM. The TGI [23] was 66.7 µM, the TGI [24] was 78 µM and the TGI [25] was greater than 100 µM. For the same compound, the TGI [26] was greater than 100 µM, the TGI [27] was greater than 100 µM and the TGI [28] was greater than 100 µM. It also gave a TGI [29] greater than 100 µM, a TGI [30] of 58.4 µM and a TGI [31] greater than 100 µM. The TGI [32] was 81.3 µM, the TGI [33] was greater than 100 µM and the TGI [34] was greater than 100 µM. It also gave a TGI [35] of 98.6 µM, a TGI [36] of 79 µM and a TGI [37] greater than 100 µM. The TGI [38] was 84.1 µM, the TGI [39] was 88 µM and the TGI [40] was greater than 100 µM. The TGI [41] was greater than 100 µM, the TGI [42] was 54.2 µM and the TGI [43] was greater than 100 µM. It also gave a TGI [44] greater than 100 µM, a TGI [45] of 29.1 µM and a TGI [46] greater than 100 µM. The TGI [47] was greater than 100 µM, the TGI [48] was greater than 100 µM and the TGI [49] was greater than 100 µM. The TGI [50] was greater than 100 µM, the TGI [51] was greater than 100 µM and the TGI [52] was greater than 100 µM. The TGI [53] was greater than 100 µM, the TGI [54] was greater than 100 µM and the TGI [55] was greater than 100 µM. The TGI [56] was greater than 100 µM, the TGI [57] was 82.8 µM and the TGI [58] was 58 µM. The TGI [59] was greater than 100 µM and the TGI [60] was greater than 100 µM.
C=C(Cl)C(=CCl)CCC(Br)C(C)(C)Cl (mixture of isomers) gave a TGI [3] greater than 10 µM, a TGI [4] greater than 10 µM and a TGI [5] greater than 10 µM. The TGI [6] was greater than 10 µM, the TGI [7] was greater than 10 µM and the TGI [8] was greater than 10 µM. It also gave a TGI [9] greater than 10 µM, a TGI [10] greater than 10 µM and a TGI [11] greater than 10 µM. It also gave a TGI [12] greater than 10 µM, a TGI [13] greater than 10 µM and a TGI [14] greater than 10 µM. The TGI [15] was greater than 10 µM, the TGI [16] was greater than 10 µM and the TGI [17] was greater than 10 µM. It also gave a TGI [18] greater than 10 µM, a TGI [1] greater than 10 µM and a TGI [19] greater than 10 µM. For the same compound, the TGI [20] was greater than 10 µM, the TGI [21] was greater than 10 µM and the TGI [22] was greater than 10 µM. For the same compound, the TGI [23] was greater than 10 µM, the TGI [24] was greater than 10 µM and the TGI [25] was greater than 10 µM. It also gave a TGI [26] greater than 10 µM, a TGI [27] greater than 10 µM and a TGI [28] greater than 10 µM. The TGI [29] was greater than 10 µM, the TGI [30] was 6.89 µM and the TGI [31] was greater than 10 µM. It also gave a TGI [32] greater than 10 µM, a TGI [33] greater than 10 µM and a TGI [34] greater than 10 µM. For the same compound, the TGI [35] was greater than 10 µM, the TGI [36] was greater than 10 µM and the TGI [37] was greater than 10 µM. It also gave a TGI [38] greater than 10 µM, a TGI [39] greater than 10 µM and a TGI [40] greater than 10 µM. For the same compound, the TGI [41] was greater than 10 µM, the TGI [42] was greater than 10 µM and the TGI [43] was greater than 10 µM. The TGI [44] was greater than 10 µM, the TGI [45] was greater than 10 µM and the TGI [46] was greater than 10 µM. For the same compound, the TGI [47] was greater than 10 µM, the TGI [48] was greater than 10 µM and the TGI [49] was greater than 10 µM. It also gave a TGI [50] greater than 10 µM, a TGI [51] greater than 10 µM and a TGI [52] greater than 10 µM. It also gave a TGI [53] greater than 10 µM, a TGI [54] greater than 10 µM and a TGI [55] greater than 10 µM. For the same compound, the TGI [56] was greater than 10 µM, the TGI [57] was greater than 10 µM and the TGI [58] was greater than 10 µM. It also gave a TGI [59] greater than 10 µM and a TGI [60] greater than 10 µM.
